Source: the supplement of paper PMC5412046
Several values for one entry are separate records, joined by “and”; a condition that tells them apart may be missing. Identical values can stand only once. Counter-ions that a name gives are not always drawn.

Legend:
SB.msgc-1 [1] = assay: area under the dose-response curve of % viability (trapezoidal, 11 doses) (% viability x log10 concentration); higher = less cytotoxic; conditions: SB.msgc-1 (sporadic gastric cancer)
Outline: (§1)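 Using a pintool, 23 nL of compound in DMSO was transferred at 11 threefold-diluted concentrations onto patient-derived gastric cancer cells, hereditary or sporadic, plated at 500 cells in 5 μL medium per 1536 well. CellTiter-Glo luminescence was read after 48 h. Each value is viability normalised to DMSO, either at the highest concentration or as trapezoidal area under the curve.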

SB.mhdgc-1 [2] = assay: as above; conditions: SB.mhdgc-1 (hereditary c.1380delA CDH1 gastric cancer)
Outline: as §1

SB.msgc-1 [3] = assay: viability at highest tested concentration (MAXR) relative to DMSO; higher = less cytotoxic; conditions: SB.msgc-1 (sporadic gastric cancer)
Outline: as §1

SB.mhdgc-1 [4] = assay: as above; conditions: SB.mhdgc-1 (hereditary c.1380delA CDH1 gastric cancer)
Outline: as §1

| Structure (SMILES) | area under the dose-response curve (SB.msgc-1 [1]) | area under the dose-response curve (SB.mhdgc-1 [2]) | viability (SB.msgc-1 [3]) | viability (SB.mhdgc-1 [4]) |
| --- | --- | --- | --- | --- |
| CCCCCC[C@H]1C(=O)O[C@H](C)[C@H](NC(=O)c2cccc(NC=O)c2O)C(=O)O[C@@H](C)[C@@H]1OC(=O)CC(C)C [Antimycin A] (top concentration 46.0829 µM) | 438 | 486 | 55.4% | 70.6% |
| N#CC1(c2ccc(NC(=O)c3cccnc3NCc3ccncc3)cc2)CCCC1 [Apatinib] (top concentration 46.0829 µM) | 513 | 528 | 57.4% | 76.5% |
| OC1=CC=C(C=C1)\C2=C\C(=O)C3=C(O2)C=C(O)C=C3O [Apigenin] (top concentration 46.0829 µM) | 499 | 504 | 41.1% | 20.6% |
| Cc1cccc(/C=N/Nc2cc(N3CCOCC3)nc(OCCc3ccccn3)n2)c1 [Apilimod] (top concentration 46.0829 µM) | 447 | 423 | 18.9% | 6.66% |
| COc1ccc(-n2nc(C(N)=O)c3c2C(=O)N(c2ccc(N4CCCCC4=O)cc2)CC3)cc1 [Apixaban] (top concentration 46.0829 µM) | 533 | 502 | 122% | 122% |
| CC1(C)SCCN([S+](=O)([O-])c2ccc(OCC#CCO)cc2)[C@H]1C(=O)NO [Apratastat] (top concentration 46.0829 µM) | 545 | 548 | 93.7% | 87.4% |
| CCOC(=O)c1c(CSc2ccccc2)n(C)c2cc(Br)c(O)c(CN(C)C)c12 [Arbidol] (top concentration 46.0829 µM) | 501 | 618 | 37.5% | 49.5% |
| OC[C@H]1O[C@@H](Oc2ccc(O)cc2)[C@H](O)[C@@H](O)[C@@H]1O [Arbutin] (top concentration 46.0829 µM) | 415 | 404 | 32.7% | 39.5% |
| COC(=O)\C1=C\CCN(C)C1 [Arecoline] (top concentration 46.0829 µM) | 565 | 551 | 58.9% | 52.9% |
| CC1CNc2c(cccc2[S+](=O)([O-])N[C@@H](CCCNC(=N)N)C(=O)N2CC[C@@H](C)C[C@@H]2C(=O)O)C1 (some centres undefined) [Argatroban] (top concentration 46.0829 µM) | 525 | 402 | 49.1% | 18.3% |
| O=C1CCc2ccc(OCCCCN3CCN(c4cccc(Cl)c4Cl)CC3)cc2N1 [Aripiprazole] (top concentration 46.0829 µM) | 556 | 456 | 68.9% | 75.5% |
| CO[C@H]1O[C@@H]2O[C@@]3(C)CC[C@H]4[C@H](C)CC[C@@H]([C@H]1C)[C@@]24OO3 [Artemether] (top concentration 46.0829 µM) | 535 | 544 | 90% | 97.7% |
| C[C@@H]1CC[C@H]2[C@@H](C)C(=O)O[C@@H]3O[C@@]4(C)CC[C@@H]1[C@]32OO4 [Artemisinin] (top concentration 46.0829 µM) | 512 | 460 | 83.8% | 90.5% |
| C[C@H]1[C@H](O)O[C@@H]2O[C@@]3(C)CC[C@H]4[C@H](C)CC[C@@H]1[C@@]24OO3 [Artenimol] (top concentration 46.0829 µM) | 316 | 436 | 31.2% | 25.5% |
| C[C@H]1[C@@H](OC(=O)CCC(=O)O)O[C@@H]2O[C@@]3(C)CC[C@H]4[C@H](C)CC[C@@H]1[C@@]24OO3 [Artesunate (AS)] (top concentration 46.0829 µM) | 499 | 441 | 41.4% | 9.23% |
| COc1cc(OC)c(OC)cc1C=O [Asaraldehyde] (top concentration 46.0829 µM) | 510 | 520 | 106% | 117% |

| Structure (SMILES) | area under the dose-response curve (SB.msgc-1 [1]) | area under the dose-response curve (SB.mhdgc-1 [2]) | viability (SB.msgc-1 [3]) | viability (SB.mhdgc-1 [4]) |
| --- | --- | --- | --- | --- |
| CN1C[C@H]2c3ccccc3Oc3ccc(Cl)cc3[C@@H]2C1 [Asenapine maleate] (top concentration 46.0829 µM) | 478 | 456 | 86% | 73.7% |
| C[C@@H]1CC[C@@]2(CC[C@]3(C)\C(=C/C[C@@H]4[C@@]5(C)C[C@@H](O)[C@H](O)[C@@](C)(CO)[C@@H]5CC[C@@]34C)[C@@H]2[C@H]1C)C(O)=O [Asiatic acid] (top concentration 46.0829 µM) | 520 | 559 | 102% | 111% |
| COC(=O)[C@H](Cc1ccccc1)NC(=O)[C@@H](N)CC(=O)O [Aspartame] (top concentration 46.0829 µM) | 579 | 543 | 98.2% | 34% |
| CC(=O)Oc1ccccc1C(=O)O [Aspirin] (top concentration 46.0829 µM) | 287 | 541 | 10.1% | 11.5% |
| CC(C)(O)[C@H]1CC[C@@](C)([C@H]2[C@@H](O)C[C@@]3(C)[C@@H]4C[C@H](O[C@@H]5O[C@H](CO)[C@@H](O)[C@H](O)[C@H]5O)[C@H]5C(C)(C)[C@@H](O[C@@H]6OC[C@@H](O)[C@H](O)[C@H]6O)CC[C@@]56C[C@@]46CC[C@]23C)O1 [Astragaloside A] (top concentration 46.0829 µM) | 559 | 558 | 87.9% | 86.5% |
| COC(=O)N[C@H](C(=O)N[C@@H](Cc1ccccc1)[C@@H](O)CN(Cc1ccc(-c2ccccn2)cc1)NC(=O)[C@@H](NC(=O)OC)C(C)(C)C)C(C)(C)C [Atazanavir sulfate] (top concentration 46.0829 µM) | 530 | 572 | 68.5% | 90.2% |
| CC(C)c1c(C(=O)Nc2ccccc2)c(-c2ccccc2)c(-c2ccc(F)cc2)n1CC[C@@H](O)C[C@@H](O)CC(=O)[O-] [Atorvastatin calcium] (top concentration 46.0829 µM) | 351 | 510 | 39% | 68.4% |
| CN1C2CCC1CC(OC(=O)C(CO)c1ccccc1)C2 (centres undefined) [Atropine] (top concentration 46.0829 µM) | 543 | 472 | 97.2% | 92% |
| CC[P](CC)(CC)=[Au][S][C@@H]1OC(COC(C)=O)[C@@H](OC(C)=O)[C@H](OC(C)=O)C1OC(C)=O (some centres undefined) [Auranofin] (top concentration 46.0829 µM) | 403 and 366 | 347 and 345 | 2.96% and -0.439% | 5.72% and 1.17% |
| CCN1CCN(C(=O)Cc2ccc(Nc3ncc(F)c(Nc4ccc(C(=O)Nc5ccccc5Cl)cc4)n3)cc2)CC1 [Aurora A Inhibitor I] (top concentration 46.0829 µM) | 470 | 396 | 2.06% | 0.759% |
| NC(=O)[C@@H](CCC(F)(F)F)N(Cc1ccc(-c2ncon2)cc1F)[S+](=O)([O-])c1ccc(Cl)cc1 [Avagacestat] (top concentration 46.0829 µM) | 487 | 491 | 68.8% | 91.5% |
| CC(C)c1cc(C(C)C)c(CC(=O)N[S+](=O)([O-])Oc2c(C(C)C)cccc2C(C)C)c(C(C)C)c1 [Avasimibe] (top concentration 46.0829 µM) | 475 | 565 | 18.4% | 7.78% |
| COc1ccc(C(=O)CC(=O)c2ccc(C(C)(C)C)cc2)cc1 [Avobenzone] (top concentration 46.0829 µM) | 417 | 394 | 22.9% | 43.2% |
| CNC(=O)c1ccccc1Sc1ccc2c(/C=C/c3ccccn3)n[nH]c2c1 [Axitinib] (top concentration 46.0829 µM) | 494 | 505 | 52.1% | 51.1% |
| CC[C@@H]1[C@@H](C)O[C@@](O)([C@@H](C)[C@H](O)[C@H](C)[C@H]2OC(=O)/C=C/C=C/[C@H](C)[C@@H]([C@@H](C)[C@@H](O)[C@H](C)[C@@]3(O)C[C@@H](O[C@H]4C[C@H](O)[C@H](O)[C@H](C)O4)[C@H](CC)[C@@H](C)O3)OC(=O)/C=C/C=C/[C@@H]2C)C[C@H]1O[C@H]1C[C@H](O)[C@H](O)[C@H](C)O1 [Azalomycin-B] (top concentration 46.0829 µM) | 346 | 334 | 2.09% | 3.39% |
